Assay results reported in patent publication US6383766B1, “Reduced cortisol conjugates” (Ortho-Clinical Diagnostics, Inc., priority 1998, dated 2002).

Columns and labels:
[1] = test system: biotinylated sheep anti-cortisol gamma globulin (anti-cortisol antibody); assay: VITROS ECi chemiluminescence competitive immunoassay, cross-reactivity (50% displacement of HRP-labeled conjugate); type: binding; settings: cortisol conc. displacing 50% / cross-reactant conc. displacing 50% x 100; for Percent Cross-Reactivity, HRP-RC Invention Label: HRP labeled reduced cortisol-3-CMO-BSA (HRP-RC) as label; for Percent Cross-Reactivity, HRP-NRC Comparative Label: comparative HRP labeled nonreduced cortisol conjugate (HRP-NRC) as label
Experimental: Evaluation of the HRP labeled reduced cortisol-3-CMO-BSA (hereinafter referred to as HRP-RC conjugate) was evaluated using an Ortho-Clinical Diagnostic VITROS ECi chemiluminesence-based assay methodology.
100 ng/mL reduced cortisol-3-CMO-BSA-HRP (or 20 ng/mL of a comparative HRP-cortisol conjugate label, which is not a conjugate label of the present invention, but which was carried through the same procedures as the label of the invention except for the reduction step)
1.5 μg/mL biotinylated sheep anti-cortisol gamma globulin
An aliquot (75 μL) of anti-cortisol biotinylated sheep antibody, 30 μL of sample, serum comprising cortisol or a steroid structurally similar to cortisol (below), and 75 μL of HRP-RC conjugate were added to an VITROS ECi sample container to which strepavidin had been prebound. The solution was incubated at 37° C. for 30 minutes, then washed using the above-indicated wash reagent.
A 200 μL aliquot of the above-indicated signal reagent solution (100 μL of part A and 100 μL of part B combined just prior to use) was then added to the sample container. The solution was incubated for 5 minutes at 37° C., and the chemiluminesence intensity was then determined.
The above method was used to determine the concentration of potential cross reactant (steroid that is structurally similar to cortisol: 11-deoxycortisol, prednisolone, corticosterone and cortisone) that displaced fifty percent of a fixed amount of a comparative HRP labeled cortisol conjugate (nonreduced cortisol, HRP-NRC) or HRP-RC conjugate bound to a fixed amount of anti-cortisol antibody.
Varied levels of the potential cross reactant were added to sample containers containing either the comparative labeled cortisol conjugate (nonreduced cortisol, HRP-NRC) or HRP-RC conjugate of the instant invention, as described above.
The concentration of cross reactant resulting in a light signal measurement corresponding to 50% of the maximum attainable (all conjugate displaced) was determined and used to calculate the percent cross reactivity as described below and whose results are listed in Table 1.
Percent cross-reactivity is defined as The concentration of cortisol that displaced 50% of the HRP-NRC comparative conjugate (or the HRP-RC conjugate) divided by the concentration of cross-reactant that displaced 50% of the HRP-NRC comparative conjugate (or the HRP-RC conjugate) multiplied by 100 as determined per the assay method described hereinabove.

anti-cortisol antibody = settings: prior art commercial cortisol assays; cited from earlier work

| Compound | Percent Cross-Reactivity, HRP-RC Invention Label [1] | Percent Cross-Reactivity, HRP-NRC Comparative Label [1] | cross-reactivity in commercial cortisol assays (anti-cortisol antibody) |
| --- | --- | --- | --- |
| C[C@]12CCC(=O)C=C1CC[C@@H]1[C@@H]2C(=O)C[C@@]2(C)[C@H]1CC[C@]2(O)C(=O)CO [cortisone] | 1.8% | 5.5% | – |
| C[C@]12CCC(=O)C=C1CC[C@@H]1[C@@H]2[C@@H](O)C[C@@]2(C)[C@H]1CC[C@]2(O)C(=O)CO [cortisol] | 100% | 100% | – |
| C[C@]12CCC(=O)C=C1CC[C@@H]1[C@@H]2CC[C@@]2(C)[C@H]1CC[C@]2(O)C(=O)CO [11-deoxycortisol] | 2.2% | 28.4% | greater than 10% |
| C[C@]12C[C@H](O)[C@H]3[C@@H](CCC4=CC(=O)CC[C@@]43C)[C@@H]1CC[C@@H]2C(=O)CO [corticosterone] | 3.3% | 4.4% | – |
| C[C@]12C=CC(=O)C=C1CC[C@@H]1[C@@H]2[C@@H](O)C[C@@]2(C)[C@H]1CC[C@]2(O)C(=O)CO [prednisolone] | 24.6% | 34.8% | – |
